Where two headings read alike, the source gives them in different places. Ends that are not written are not given here.
Tests used:
[1] = type: in vivo, NIH/Swiss mice; conditions: 80 nmol/Kg; AUC240
Protocol: Gavage (1.5g/kg) was given at t=0. Sample was taken at t=30 min.

[2] = IVGTT duration of action assay, single SC injection; type: in vivo, rat; conditions: compared with 0601GIP3794 (794); @ -120 min
Protocol: In the typical IVGTT assays the test sample was administered by IV infusion. The IV infusion of sample was initiated at t = -30min and continued through t = 90. IV glucose was given at t = 0. To determine a duration of action using the IVGTT assay, the sample was injected SC as a single injection at one time point indicated (e.g., t = -240, -120, -60 or -30) prior to administration of glucose. IV glucose was given at t = 0.

[3] = type: in vivo, rats; parameters: AUC Change in Insulin Pre IVGTT / AUC Change in Insulin Post IVGTT: unit not given beside the values; conditions: for AUC Change in Insulin Post IVGTT / AUC Change in Insulin Pre IVGTT: rat, in vivo
[4] = cited from earlier work; for inhibition of gastric emptying: at doses of 100µg; for EC(50): inhibition of gastric emptying, subcutaneous
[5] = 100 pmol/kg/min infusion dose in rats

CC[C@H](C)[C@H](NC(=O)[C@H](CO)NC(=O)[C@H](Cc1ccc(O)cc1)NC(=O)[C@H](CC(=O)O)NC(=O)[C@H](CO)NC(=O)[C@@H](NC(=O)[C@H](Cc1ccccc1)NC(=O)[C@@H](NC(=O)CNC(=O)[C@H](CCC(=O)O)NC(=O)[C@@H](C)NC(=O)[C@@H](N)Cc1ccc(O)cc1)[C@@H](C)O)[C@@H](C)CC)C(=O)N[C@@H](C)C(=O)N[C@@H](CCSC)C(=O)N[C@@H](CC(=O)O)C(=O)N[C@@H](CCCCN)C(=O)N[C@H](C(=O)N[C@@H](Cc1c[nH]cn1)C(=O)N[C@@H](CCC(N)=O)C(=O)N[C@@H](CCC(N)=O)C(=O)N[C@@H](CC(=O)O)C(=O)N[C@@H](Cc1ccccc1)C(=O)N[C@H](C(=O)N[C@@H](CC(N)=O)C(=O)N[C@@H](Cc1c[nH]c2ccccc12)C(=O)N[C@@H](CC(C)C)C(=O)N[C@@H](CC(C)C)C(=O)N[C@@H](C)C(=O)N[C@@H](CCC(N)=O)C(=O)N[C@@H](CCCCN)C(=O)N1CCC[C@H]1C(=O)N[C@@H](CCCCN)C(=O)N[C@@H](CO)C(=O)N[C@@H](C)C(=O)N[C@@H](CCCNC(=N)N)C(=O)N1CCC[C@H]1C(=O)N[C@@H](CO)C(N)=O)C(C)C)[C@@H](C)CC [0601 GIP48 21]
Basal Glucose Lowering at 80 nmol/Kg [1]: -5%, AUC240
Duration In The Rat IVGTT Assay [2]: <794@-120 min

CC[C@H](C)[C@H](NC(=O)[C@H](CO)NC(=O)[C@H](Cc1ccc(O)cc1)NC(=O)[C@H](CC(=O)O)NC(=O)[C@H](CO)NC(=O)[C@@H](NC(=O)[C@H](Cc1ccccc1)NC(=O)[C@@H](NC(=O)CNC(=O)[C@H](CCC(=O)O)NC(=O)[C@@H](C)NC(=O)[C@@H](N)Cc1ccc(O)cc1)[C@@H](C)O)[C@@H](C)CC)C(=O)N[C@@H](C)C(=O)N[C@@H](CCSC)C(=O)N[C@@H](CC(=O)O)C(=O)N[C@@H](CCCCN)C(=O)N[C@H](C(=O)N[C@@H](Cc1c[nH]cn1)C(=O)N[C@@H](CCC(N)=O)C(=O)N[C@@H](CCC(N)=O)C(=O)N[C@@H](CC(=O)O)C(=O)N[C@@H](Cc1ccccc1)C(=O)N[C@H](C(=O)N[C@@H](CC(N)=O)C(=O)N[C@@H](Cc1c[nH]c2ccccc12)C(=O)N[C@@H](CC(C)C)C(=O)N[C@@H](CC(C)C)C(=O)N[C@@H](C)C(=O)N[C@@H](CCC(N)=O)C(=O)N[C@@H](CCCCN)C(=O)N1CCC[C@H]1C(=O)N[C@@H](CCC(N)=O)C(=O)N[C@@H](CCCCN)C(=O)N[C@H](C(=O)N[C@@H](CCCNC(=N)N)C(=O)N[C@@H](Cc1ccc(O)cc1)C(=O)N[C@@H](CO)C(N)=O)[C@@H](C)CC)C(C)C)[C@@H](C)CC [0601 GIP48 53]
Basal Glucose Lowering at 80 nmol/Kg [1]: -20%, AUC240
Duration In The Rat IVGTT Assay [2]: < 794@ -120 min

CC[C@H](C)[C@H](NC(=O)[C@H](C)NC(=O)[C@H](CCCCN)NC(=O)[C@@H]1CCCN1C(=O)[C@H](CCCCN)NC(=O)[C@H](CCC(N)=O)NC(=O)[C@H](C)NC(=O)[C@H](CC(C)C)NC(=O)[C@H](CC(C)C)NC(=O)[C@H](Cc1c[nH]c2ccccc12)NC(=O)[C@H](CC(N)=O)NC(=O)[C@@H](NC(=O)[C@H](Cc1ccccc1)NC(=O)[C@H](CC(=O)O)NC(=O)[C@H](CCC(N)=O)NC(=O)[C@H](CCC(N)=O)NC(=O)[C@H](Cc1c[nH]cn1)NC(=O)[C@@H](NC(=O)[C@H](CCCCN)NC(=O)[C@H](CC(=O)O)NC(=O)[C@H](CCSC)NC(=O)[C@H](C)NC(=O)[C@@H](NC(=O)[C@H](CO)NC(=O)[C@H](Cc1ccc(O)cc1)NC(=O)[C@H](CC(=O)O)NC(=O)[C@H](CO)NC(=O)[C@@H](NC(=O)[C@H](Cc1ccccc1)NC(=O)[C@@H](NC(=O)CNC(=O)[C@H](CCC(=O)O)NC(=O)[C@@H](C)NC(=O)[C@@H](N)Cc1ccc(O)cc1)[C@@H](C)O)[C@@H](C)CC)[C@@H](C)CC)[C@@H](C)CC)C(C)C)C(=O)N[C@@H](CCCNC(=N)N)C(=O)N[C@@H](Cc1ccc(O)cc1)C(=O)N[C@@H](CO)C(N)=O [0601 GIP48 16]
Basal Glucose Lowering at 80 nmol/Kg [1]: -9%, AUC240
Duration In The Rat IVGTT Assay [2]: <794@-120 min

CC[C@H](C)[C@H](NC(=O)[C@H](CO)NC(=O)[C@H](Cc1ccc(O)cc1)NC(=O)[C@H](CC(=O)O)NC(=O)[C@H](CO)NC(=O)[C@@H](NC(=O)[C@H](Cc1ccccc1)NC(=O)[C@@H](NC(=O)CNC(=O)[C@H](CCC(=O)O)NC(=O)[C@@H](C)NC(=O)[C@@H](N)Cc1ccc(O)cc1)[C@@H](C)O)[C@@H](C)CC)C(=O)N[C@@H](C)C(=O)N[C@@H](CCSC)C(=O)N[C@@H](CC(=O)O)C(=O)N[C@@H](CCCCN)C(=O)N[C@H](C(=O)N[C@@H](Cc1c[nH]cn1)C(=O)N[C@@H](CCC(N)=O)C(=O)N[C@@H](CCC(N)=O)C(=O)N[C@@H](CC(=O)O)C(=O)N[C@@H](Cc1ccccc1)C(=O)N[C@H](C(=O)N[C@@H](CC(N)=O)C(=O)N[C@@H](Cc1c[nH]c2ccccc12)C(=O)N[C@@H](CC(C)C)C(=O)N[C@@H](CC(C)C)C(=O)N[C@@H](C)C(=O)N[C@@H](CCC(N)=O)C(=O)N[C@@H](CCCCN)C(=O)N1CCC[C@H]1C(=O)N[C@@H](C)C(=O)N[C@@H](CCCCN)C(=O)N[C@H](C(=O)N[C@@H](CCCNC(=N)N)C(=O)N[C@@H](Cc1ccc(O)cc1)C(=O)N[C@@H](CO)C(N)=O)[C@@H](C)CC)C(C)C)[C@@H](C)CC [0601 GIP48 15]
Basal Glucose Lowering at 80 nmol/Kg [1]: -14%, AUC240
Duration In The Rat IVGTT Assay [2]: < 794@ -120 min

[dAla2, Leu14, beta-Ala31, beta-Ala32] GIP-(1-32)-Exendin-4 (31-39) [Compound 0601GIP4179]
Basal Glucose Lowering at 80 nmol/Kg [1]: -17%, AUC240
AUC Change in Insulin Post IVGTT [3]: 206.8+-30.1
AUC Change in Insulin Pre IVGTT [3]: 52.4+-9.6

vasoactive intestinal peptide: peptide compared for inhibition of gastric emptying in conscious rats (HSDAVFTDNYTRLRKQMAVKKYLNSILN; ends and bridges not checked; UniProt P01282 125-152, looked up)
inhibition of gastric emptying [4]: weakly active or inactive

CSNLSTCVLGKLSQELHKLQTYPRTNTGSGTP [Salmon calcitonin]
EC(50) ([4]; conscious rats ~200g): 0.19 µg
EC(50) ([4]; conscious rats): 0.28 nmol/kg

^25,28,29Pro-h-amylin (KCNTATCATQRLANFLVHSSNNFGPILPPTNVGSNTY; chains of the INN, looked up) [Pramlintide]
EC(50) ([4]; conscious rats ~200g): 0.07 µg

pancreatic polypeptide: peptide compared for inhibition of gastric emptying in conscious rats (APLEPVYPGDNATPEQMAQYAADLRRYINMLTRPRY; ends and bridges not checked; UniProt P01298 30-65, looked up)
inhibition of gastric emptying [4]: weakly active or inactive

glucagon: peptide compared for inhibition of gastric emptying in conscious rats
inhibition of gastric emptying [4]: weakly active or inactive

KCNTATCATQRLANFLVHSSNNFGAILSSTNVGSNTY [Human amylin]
EC(50) ([4]; conscious rats ~200g): 0.15 µg
EC(50) ([4]; conscious rats): 0.19 nmol/kg

CC[C@H](C)[C@H](NC(=O)[C@H](CO)NC(=O)[C@H](Cc1ccc(O)cc1)NC(=O)[C@H](CC(=O)O)NC(=O)[C@H](CO)NC(=O)[C@@H](NC(=O)[C@H](Cc1ccccc1)NC(=O)[C@@H](NC(=O)CNC(=O)[C@H](CCC(=O)O)NC(=O)[C@@H](C)NC(=O)[C@@H](N)Cc1ccc(O)cc1)[C@@H](C)O)[C@@H](C)CC)C(=O)N[C@@H](C)C(=O)N[C@@H](CCSC)C(=O)N[C@@H](CC(=O)O)C(=O)N[C@@H](CCCCN)C(=O)N[C@H](C(=O)N[C@@H](Cc1c[nH]cn1)C(=O)N[C@@H](CCC(N)=O)C(=O)N[C@@H](CCC(N)=O)C(=O)N[C@@H](CC(=O)O)C(=O)N[C@@H](Cc1ccccc1)C(=O)N[C@H](C(=O)N[C@@H](CC(N)=O)C(=O)N[C@@H](Cc1c[nH]c2ccccc12)C(=O)N[C@@H](CC(C)C)C(=O)N[C@@H](CC(C)C)C(=O)N[C@@H](C)C(=O)N[C@@H](CCC(N)=O)C(=O)N[C@@H](CCCCN)C(=O)N1CCC[C@H]1C(=O)N[C@@H](CCCCN)C(=O)N[C@@H](CCC(N)=O)C(=O)N[C@H](C(=O)N[C@@H](CCCNC(=N)N)C(=O)N[C@@H](Cc1ccc(O)cc1)C(=O)N[C@@H](CO)C(N)=O)[C@@H](C)CC)C(C)C)[C@@H](C)CC [0601 GIP48 54]
Duration In The Rat IVGTT Assay [2]: < 794@ -120 min

adrenomedullin: peptide compared for inhibition of gastric emptying in conscious rats (YRQSMNNFQGLRSFGCRFGTCTVQKLAHQIYQFTDKDKDNVAPRSKISPQGY; ends and bridges not checked; cysteine pairing not given here; UniProt P35318 95-146, looked up)
inhibition of gastric emptying [4]: weakly active or inactive

[dAla2]GIP-(1-30)-[Octylglycine 34] Exendin-4 (31-39) [Compound 0601GIP4252]
Basal Glucose Lowering at 80 nmol/Kg [1]: -7%, AUC240
AUC Change in Insulin Post IVGTT [3]: 1218.1+ -12.7
AUC Change in Insulin Pre IVGTT [3]: 11.9+-11.7

octylglycine-GIP(1-30)-Exendin-4-(31-39) [Compound 0601GIP4178]
Basal Glucose Lowering at 80 nmol/Kg [1]: -13%, AUC240
insulin levels prior to the glucose challenge [3, 5]: significant rise in insulin levels
insulinotropic response to an intravenous glucose challenge [3, 5]: diminished insulinotropic response
AUC Change in Insulin Post IVGTT [3]: 106.6+-23.8
AUC Change in Insulin Pre IVGTT [3]: 18.5+-6.7

Rat CGRP: peptide compared for inhibition of gastric emptying in conscious rats (SCNTATCVTHRLAGLLSRSGGVVKDNFVPTNVGSEAF; ends and bridges not checked; cysteine pairing not given here; UniProt P01256 83-119, looked up)
EC(50) ([4]; conscious rats ~200g): 1.62 µg
EC(50) ([4]; conscious rats): 2.13 nmol/kg

Reference: patent EP2057188B1 (priority 2006, dated 2008)
